Assay results taken from patent publication US8865745B2, “Pyrazolone derivatives as PDE4 inhibitors” (Takeda GmbH, priority 2007, dated 2014).

Experiments:
PDE4B1 = PDE4B1 (Homo sapiens (Human), UniProt Q07343); assay: Inhibition of PDE4 activity, [3H]cAMP SPA enzyme assay with recombinant PDE4B1; assay type: biochemical; details: recombinant PDE4B1 expressed in SF21 cells, 0.5 μM cAMP, 37° C.
Protocol: Method for Measuring Inhibition of PDE4 Activity
The PDE4B1 (GB no. L20966) was a gift of Prof. M. Conti (Stanford University, USA). It was amplified from the original plasmid (pCMV5) via PCR with primers Rb18 (5′-[…]-3′) and Rb10 (5′-[…]-3′) and cloned into the pCR-Bac vector (Invitrogen, Groningen, NL).
The recombinant baculovirus was prepared by means of homologous recombination in SF9 insect cells. The expression plasmids were cotransfected with Baculo-Gold DNA (Pharmingen, Hamburg) using a standard protocol (Pharmingen, Hamburg). Wt virus-free recombinant virus supernatants were selected using plaque assay methods. After that, high-titre virus supernatants were prepared by amplifying 3 times. PDE4B1 was expressed in SF21 cells by infecting 2×10^6 cells/ml with an MOI (multiplicity of infection) between 1 and 10 in the serum-free medium Insect Express Sf9-S2 (PAA, Pasching, Austria). The cells were cultured at 28° C. for 48-72 hours, after which they were pelleted for 5-10 min at 1000×g and 4° C.
The SF21 insect cells were resuspended, at a concentration of approx. 10^7 cells/ml, in ice-cold (4° C.) homogenization buffer (20 mM Tris, pH 8.2, containing the following additions: 140 mM NaCl, 3.8 mM KCl, 1 mM EGTA, 1 mM MgCl2, 10 mM β-mercaptoethanol, 2 mM benzamidine, 0.4 mM Pefablock, […] leupeptin, 10 μM pepstatin A, 5 μM trypsin inhibitor) and disrupted by ultrasonication. The homogenate was then centrifuged for 10 min at 1000×g and the supernatant was stored at −80° C. until subsequent use (see below). The protein content was determined by the Bradford method (BioRad, Munich) using BSA as the standard.
PDE4B1 activity was inhibited by the compounds according to the invention in a modified SPA (scintillation proximity assay) test, supplied by Amersham Biosciences (see procedural instructions “phosphodiesterase [3H]cAMP SPA enzyme assay, code TRKQ 7090”), carried out in 96-well microtitre plates (MTP's). The test volume is 100 μl and contains 20 mM Tris buffer (pH 7.4), 0.1 mg/ml of BSA, 5 mM Mg^2+, 0.5 μM cAMP (including about 50,000 cpm of [3H]cAMP), 1 μl of the respective substance dilution in DMSO and sufficient recombinant PDE (1000×g supernatant, see above) to ensure that 10-20% of the cAMP is converted under the said experimental conditions. […] After a preincubation of 5 min at 37° C., the reaction is started by adding the substrate (cAMP) and the assays are incubated for a further 15 min; after that, they are stopped by adding SPA beads (50 μl). In accordance with the manufacturer's instructions, the SPA beads had previously been resuspended in water, but were then diluted 1:3 (v/v) in water; the diluted solution also contains 3 mM IBMX to ensure a complete PDE activity stop. After the beads have been sedimented (>30 min), the MTP's are analyzed in commercially available luminescence detection devices. The corresponding IC50 values of the compounds for the inhibition of […] activity are determined from the concentration-effect curves by means of non-linear regression.
The inhibitory values determined for the compounds according to the invention follow from the following Table 1, in which the numbers of the compounds correspond to the numbers of the examples.

Chain of PDE4B1 (Q07343 whole entry): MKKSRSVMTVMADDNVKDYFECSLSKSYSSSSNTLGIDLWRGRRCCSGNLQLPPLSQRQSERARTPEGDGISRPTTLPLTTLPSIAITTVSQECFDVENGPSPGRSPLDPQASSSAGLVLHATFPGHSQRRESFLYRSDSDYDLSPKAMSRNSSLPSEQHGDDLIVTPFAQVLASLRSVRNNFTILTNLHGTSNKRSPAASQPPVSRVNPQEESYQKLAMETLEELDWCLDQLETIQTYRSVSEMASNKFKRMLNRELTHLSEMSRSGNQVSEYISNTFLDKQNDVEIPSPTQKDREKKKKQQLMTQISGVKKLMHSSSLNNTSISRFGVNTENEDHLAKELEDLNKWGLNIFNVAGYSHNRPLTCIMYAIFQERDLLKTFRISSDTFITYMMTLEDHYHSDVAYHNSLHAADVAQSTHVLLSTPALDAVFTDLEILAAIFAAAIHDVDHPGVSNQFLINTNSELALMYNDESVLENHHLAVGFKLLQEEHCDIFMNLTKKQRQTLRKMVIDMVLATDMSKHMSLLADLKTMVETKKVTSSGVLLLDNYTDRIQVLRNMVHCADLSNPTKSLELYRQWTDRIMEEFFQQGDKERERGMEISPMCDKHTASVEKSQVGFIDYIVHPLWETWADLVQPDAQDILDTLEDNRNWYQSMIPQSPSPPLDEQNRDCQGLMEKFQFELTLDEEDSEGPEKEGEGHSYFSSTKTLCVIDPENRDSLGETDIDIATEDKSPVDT

SMILES | melting point | PDE4 Inhibition [measured as −logIC50 (mol/l)] (PDE4B1)
COc1ccc(C2=NN(C3CCN(C(=O)CN4C(=O)COCC4=O)CC3)C(=O)C2(C)C)cc1OC [Compound 1, 4-(2-{4-[3-(3,4-dimethoxyphenyl)-4,4-dimethyl-5-oxo-4,5-dihydro-1H-pyrazol-1-yl]piperidin-1-yl}-2-oxoethyl)morpholine-3,5-dione] | 156 to 157 °C | 8.29 −logIC50 (mol/l)
COc1ccc(C2=NN(C3CCN(C(=O)CN4C(=O)CCC4=O)CC3)C(=O)C2(C)C)cc1OC [Compound 2, 1-(2-{4-[3-(3,4-dimethoxyphenyl)-4,4-dimethyl-5-oxo-4,5-dihydro-1H-pyrazol-1-yl]piperidin-1-yl}-2-oxoethyl)pyrrolidine-2,5-dione] | 218 to 220 °C | 8.09 −logIC50 (mol/l)
CCOc1ccc(C2=NN(C3CCN(C(=O)CN4C(=O)CCC4=O)CC3)C(=O)C2(C)C)cc1OCC [Compound 3, 1-(2-{-4-[3-(3,4-diethoxyphenyl)-4,4-dimethyl-5-oxo-4,5-dihydro-1H-pyrazol-1-yl]piperidin-1-yl}-2-oxoethyl)pyrrolidine-2,5-dione] |  | 7.75 −logIC50 (mol/l)
CC1(C)C(=O)N(C2CCN(C(=O)CN3C(=O)CCC3=O)CC2)N=C1c1ccc(OC(F)F)c(OCC2CC2)c1 [Compound 4, 1-[2-(4-{3-[3-(cyclopropylmethoxy)-4-(difluoromethoxy)phenyl]-4,4-dimethyl-5-oxo-4,5-dihydro-1H-pyrazol-1-yl}piperidin-1-yl)-2-oxoethyl]pyrrolidine-2,5-dione] |  | 7.74 −logIC50 (mol/l)
COc1ccc(C2=NN(C3CCN(C(=O)CN4C(=O)CCC4=O)CC3)C(=O)C2(C)C)cc1OCC1CC1 [Compound 5, 1-[2-(4-{3-[3-(cyclopropylmethoxy)-4-methoxyphenyl]-4,4-dimethyl-5-oxo-4,5-dihydro-1H-pyrazol-1-yl}piperidin-1-yl)-2-oxoethyl]pyrrolidine-2,5-dione] | 129 to 131 °C | 7.15 −logIC50 (mol/l)
COc1ccc(C2=NN(C3CCN(C(=O)CN4C(=O)CCC4=O)CC3)C(=O)C2(C)C)cc1OCC(F)(F)F [Compound 6, 1-[2-(4-{3-[4-methoxy-3-(2,2,2-trifluoroethoxy)phenyl]-4,4-dimethyl-5-oxo-4,5-dihydro-1H-pyrazol-1-yl}piperidin-1-yl)-2-oxoethyl]pyrrolidine-2,5-dione] |  | 6.84 −logIC50 (mol/l)
CCOc1cc(C2=NN(C3CCN(C(=O)CN4C(=O)CCC4=O)CC3)C(=O)C2(C)C)ccc1OC [Compound 7, 1-(2-{4-[3-(3-ethoxy-4-methoxyphenyl)-4,4-dimethyl-5-oxo-4,5-dihydro-1H-pyrazol-1-yl]piperidin-1-yl}-2-oxoethyl)pyrrolidine-2,5-dione] |  | 7.65 −logIC50 (mol/l)
COc1ccc(C2=NN(C3CCN(C(=O)CN4C(=O)CCC4=O)CC3)C(=O)C2(C)C)c2c1OC(C)(C)C2 [Compound 8] |  | 8.53 −logIC50 (mol/l)
COc1ccc(C2=NN(C3CCN(C(=O)CN4C(=O)CCC4=O)CC3)C(=O)C2(C)C)c2c1OC1(CCCC1)C2 [Compound 9] |  | 8.23 −logIC50 (mol/l)
CCCC1(C)C(=O)N(C2CCN(C(=O)CN3C(=O)CCC3=O)CC2)N=C1c1ccc(OC)c(OC)c1 (centres unmarked) [Compound 11, 1-(2-{4-[3-(3,4-dimethoxyphenyl)-4-methyl-5-oxo-4-propyl-4,5-dihydro-1H-pyrazol-1-yl]piperidin-1-yl}-2-oxoethyl)pyrrolidine-2,5-dione] |  | 8.08 −logIC50 (mol/l)
CCC1(C)C(=O)N(C2CCN(C(=O)CN3C(=O)CCC3=O)CC2)N=C1c1ccc(OC)c(OC)c1 (centres unmarked) [Compound 12, 1-(2-{4-[3-(3,4-dimethoxyphenyl)-4-ethyl-4-methyl-5-oxo-4,5-dihydro-1H-pyrazol-1-yl]piperidin-1-yl}-2-oxoethyl)pyrrolidine-2,5-dione] |  | 7.46 −logIC50 (mol/l)
COc1ccc(C2=NN(C3CCN(C(=O)CN4C(=O)CCC4=O)CC3)C(=O)C23CCCC3)cc1OC [Compound 13, 1-(2-{4-[4-(3,4-dimethoxyphenyl)-1-oxo-2,3-diazaspiro[4.4]non-3-en-2-yl]piperidin-1-yl}-2-oxoethyl)pyrrolidine-2,5-dione] |  | 7.79 −logIC50 (mol/l)
COc1ccc(C2=NN(C3CCN(C(=O)CN4C(=O)c5ccccc5C4=O)CC3)C(=O)C2(C)C)cc1OC [Compound 14, 2-(2-{4-[3-(3,4-dimethoxyphenyl)-4,4-dimethyl-5-oxo-4,5-dihydro-1H-pyrazol-1-yl]piperidin-1-yl}-2-oxoethyl)-1H-isoindole-1,3(2H)-dione] |  | 9.06 −logIC50 (mol/l)
COc1ccc(C2=NN(C3CCN(C(=O)CN4C(=O)CCCC4=O)CC3)C(=O)C2(C)C)cc1OC [Compound 15, 1-(2-{4-[3-(3,4-Dimethoxy-phenyl)-4,4-dimethyl-5-oxo-4,5-dihydro-pyrazol-1-yl]-piperidin-1-yl}-2-oxo-ethyl)-piperidine-2,6-dione] |  | 7.90 −logIC50 (mol/l)
COc1ccc(C2=NN(C3CCN(C(=O)CN4CCCC4=O)CC3)C(=O)C2(C)C)cc1OC [Compound 16, 5-(3,4-dimethoxyphenyl)-4,4-dimethyl-2-{1-[(2-oxopyrrolidin-1-yl)acetyl]piperidin-4-yl}-2,4-dihydro-3H-pyrazol-3-one] | 125 to 131 °C | 7.48 −logIC50 (mol/l)
COc1ccc(C2=NN(C3CCN(C(=O)CN4C(=O)CSCC4=O)CC3)C(=O)C2(C)C)cc1OC [Compound 17, 4-(2-{4-[3-(3,4-dimethoxyphenyl)-4,4-dimethyl-5-oxo-4,5-dihydro-1′-1-pyrazol-1-yl]piperidin-1-yl}-2-oxoethyl)thiomorpholine-3,5-dione] |  | 8.27 −logIC50 (mol/l)
COc1ccc(C2=NN(C3CCN(C(=O)CN4C(=O)CS(=O)(=O)CC4=O)CC3)C(=O)C2(C)C)cc1OC [Compound 18, 4-(2-{-4-[3-(3,4-dimethoxyphenyl)-4,4-dimethyl-5-oxo-4,5-dihydro-1H-pyrazol-1-yl]piperidin-1-yl}-2-oxoethyl)thiomorpholine-3,5-dione 1,1-dioxide] | 146 to 148 °C | 8.42 −logIC50 (mol/l)
COc1ccc(C2=NN(C3CCN(C(=O)CCN4C(=O)CCC4=O)CC3)C(=O)C2(C)C)cc1OC [Compound 19, 1-(3-{4-[3-(3,4-Dimethoxy-phenyl)-4,4-dimethyl-5-oxo-4,5-dihydro-pyrazol-1-yl]-piperidin-1-yl}-3-oxo-propyl)-pyrrolidine-2,5-dione] | 207 to 209 °C | 7.48 −logIC50 (mol/l)
COc1ccc(C2=NN(C3CCN(C(=O)CN4C(=O)Cc5ccccc54)CC3)C(=O)C2(C)C)cc1OC [Compound 20, 1-(2-{4-[3-(3,4-Dimethoxy-phenyl)-4,4-dimethyl-5-oxo-4,5-dihydro-pyrazol-1-yl]-piperidin-1-yl}-2-oxo-ethyl)-1,3-dihydro-2H-indol-2-one] | 178 °C | 8.24 −logIC50 (mol/l)
